Like-named read-outs stand apart in the source and are kept apart here.

A short description of series [1]: Neutral Red uptake assay (NRA), uninfected HFFs. The class given is cell-based. To be noted: human, read-out: CC50 (VZV-GFP system). The procedure: The cytotoxic level of the compounds was determined by the use of an established quantitation of cell viability (i.e., Neutral Red uptake assay) performed after 3–7 d of compound incubation on uninfected cells (according to the respective duration of the antiviral reporter-based replication assay performed in parallel) as described earlier in [44].

Another series has as its system VZV Oka-GFP. In words: microbe, parasite or virus in culture. The conditions noted are these: for EC50: Human alphaherpesvirus 3, 96 h. The class given is cell-based, varicella zoster virus. An excerpt: (§1) The virus recombinants VZV Oka-GFP and rKSHV.219-GFP/RFP were used for the infection of HFFs (virus stock VZV Oka-GFP applied as a cell-bound inoculum as described before) or were continuously passaged in iSLK.219 carrier cells, respectively (Figure 1). The conditions of the GFP/RFP-based assays were adapted to both the 96 well (Figure 1A,B) and 12 well formats, and details including the assessment of antiviral reference drugs are given (Figure 1C,D).
(§2) The virus recombinants VZV Oka-GFP and rKSHV.219-GFP/RFP were used for the infection of HFFs (VZV) or were continuously passaged in iSLK.219 carrier cells (KSHV), respectively, and cell viability was determined by NRA performed with uninfected HFFs or uninduced iSLK.219 cells, respectively. (A,B) Schematic depiction of the assay systems performed in a 96 well plate format. […] For the VZV-GFP system, virus stock VZV Oka-GFP was applied as a cell-bound infectious inoculum. After a 90 min period of inoculum adsorption to the cell surfaces, antiviral compounds were added to the culture media at serial dilutions (DMSO served as a solvent control for drug treatment of infected cells, while mock-infected cells served as a negative control). For the KSHV-GFP/RFP system, iSLK.219 cell lytic replication of KSHV (RFP reporter signal) was induced by the addition of 0.05 or 0.5 µg/mL doxycycline (dox) to the culture media. Cultivated dox-induced iSLK.219 cells were treated with antiviral compounds added at serial dilutions (DMSO served as a positive infection solvent control, while dox-untreated mock cells served as a negative control). HFFs or iSLK.219 cells were harvested at 4 d p.i. or 1 d after treatment, respectively, fixed by a 10 min incubation with 10% formalin, washed with PBS, and used for quantitation of the GFP or RFP reporter signal by PicoMD counting (ImageXpress® Pico device, Molecular Devices LLC, San Jose, CA, USA), with data evaluation using CellReporterXpress® software (version 2.9.3.1183, Molecular Devices LLC) as described earlier in [63]. (C) The antiviral activity of the reference drugs was determined with the VZV-GFP system in the 96 well format. EC50 values refer to measurements in quadruplicate, and the mean values ± SD of two experimental replicates are given. (D) The antiviral activity of the reference drugs was determined with the KSHV-GFP/RFP system in the 96 well format. EC50 values refer to measurements in triplicate, and the mean values ± SD are given for each of the two depicted experimental replicates.

The nature of series [2]: Neutral Red uptake assay (NRA), iSLK.219 cells. The format is cell-based. To be noted: human, read-out: CC50 (KSHV-GFP/RFP system). Here is the method: as §2
The test system of a further series is rKSHV.219-GFP/RFP. As to the kind of experiment: KSHV-GFP/RFP reporter assay in iSLK.219 cells. The format is cell-based, Kaposi’s sarcoma-associated herpesvirus.
Description: as §1, §2
Background: In a reporter assay the amount or activity of a reporter protein is the signal.

Series [3] relates to HCMV UL97-H411Y. Set-up: method as in PMID 31940472; key: R-high, high-level drug resistance; R-int, intermediate-level drug resistance; R-low, low-level drug resistance; S, drug sensitivity. The conditions noted are these: cited from earlier work.
The subject of series [4] is HCMV UL97-C480F. Set-up: method as in PMID 31940472; key: R-high, high-level drug resistance; R-int, intermediate-level drug resistance; R-low, low-level drug resistance; S, drug sensitivity. To be noted: cited from earlier work.
The subject of series [5] is HCMV UL97-T409M. Set-up: method as in PMID 31940472; key: R-high, high-level drug resistance; R-int, intermediate-level drug resistance; R-low, low-level drug resistance; S, drug sensitivity. The conditions noted are these: cited from earlier work.
Series [6] relates to HCMV UL97-C592G. Set-up: method as in PMID 31940472; key: R-high, high-level drug resistance; R-int, intermediate-level drug resistance; R-low, low-level drug resistance; S, drug sensitivity. The conditions noted are these: cited from earlier work.
Series [7] relates to HCMV UL97-H520Q. Set-up: method as in PMID 31940472; key: R-high, high-level drug resistance; R-int, intermediate-level drug resistance; R-low, low-level drug resistance; S, drug sensitivity. The conditions noted are these: cited from earlier work.
Series [8] relates to HCMV UL97-M460I. Set-up: method as in PMID 31940472; key: R-high, high-level drug resistance; R-int, intermediate-level drug resistance; R-low, low-level drug resistance; S, drug sensitivity. The conditions noted are these: cited from earlier work.
In series [9] the test system is HCMV UL97-F342S. Set-up: method as in PMID 31940472; key: R-high, high-level drug resistance; R-int, intermediate-level drug resistance; R-low, low-level drug resistance; S, drug sensitivity. The conditions noted are these: (for F342Y); cited from earlier work.
In series [10] the test system is HCMV UL97-C592G. As to the kind of experiment: HCMV reporter-based antiviral assay, drug-resistant mutant. To be noted: Human betaherpesvirus 5, read-out: Measured EC50 ref. drugs UL97-C592G. The format is cell-based, human cytomegalovirus. Here is the method:
(§3) For the infection experiments, stocks of the following recombinant, reporter protein-expressing viruses (GFP or YFP (i.e., green or yellow fluorescent protein, respectively)) were propagated (in permissive cells), determined in their infectious titers performing the respective reporter assays, stored by aliquots at −80 °C, and used for the assessment of antiviral drug activities: human cytomegalovirus HCMV AD169-GFP (HFFs); murine cytomegalovirus MCMV C3X-GFP (MEFs); guinea pig cytomegalovirus GPCMV v403-GFP (GPEFs); human herpesvirus type 6A HHV-6A U1102-GFP (J-Jhan); herpes simplex virus type 1 HSV-1 166v VP22-GFP (HFFs); varicella zoster virus VZV Oka-GFP (HFFs); Epstein-Barr virus EBV Akata-GFP (Akata-BX1-GFP carrier cells; kindly provided by Lindsey Hutt-Fletcher and Rona Scott, Dept. Microbiol. Immunol., LSUHSC Univ., Shreveport, LA, USA); and Kaposi’s sarcoma-associated herpesvirus KSHV rKSHV.219-GFP/RFP (in iSLK.219 carrier cells).
(§4) For HCMV AD169-GFP infection, the replication assay was based on a seeding of 225,000 HFFs or 13,500 HFFs in 12 well or 96 well plates, respectively, which were then inoculated with HCMV AD169-GFP [55] at an MOI of 0.25 GFP-FU/mL/7 d for a 90 min period of inoculum–cell adsorption, followed by a medium refreshment including the immediate addition of antiviral compounds. At 7 d p.i., the infected HFFs were either directly fixed with 10% formalin for 20 min at 4 °C (when used for infection in the 96 well format) or lysed and transferred to 96 well plates (when used for infection in the 12 well format) so that the reporter of viral replication could be quantified by GFP fluorometry using a Perkin Elmer Victor X4 Multimode Plate Reader (Perkin Elmer, Waltham, MA, USA).
(§5) Due to the fact that the HCMV-encoded protein kinase pUL97 represents a functional and structural ortholog of the host CDKs (vCDK/pUL97), the viral mutants of ORF-UL97 were assessed for sensitivity against CDK7 inhibitors.

Series [11] deals with HCMV UL97-F342S. The description is as above. The format is cell-based, human cytomegalovirus. The conditions noted are these: Human betaherpesvirus 5, read-out: Measured EC50 ref. drugs UL97-F342S. Here is the method:
as §3, §4, §5

Series [12] deals with HCMV UL97-C603W. The description is as above. The class given is cell-based, human cytomegalovirus. To be noted: Human betaherpesvirus 5, read-out: Measured EC50 ref. drugs UL97-C603W. Here is the method:
as §3, §4, §5

The test system of the next series is HCMV UL97-L397R. The description is as above. The format is cell-based, human cytomegalovirus. The conditions noted are these: Human betaherpesvirus 5, read-out: Measured EC50 ref. drugs UL97-L397R. The procedure:
as §3, §4, §5

In series [13] the test system is HCMV UL97-M460I. The series is described as above. The format is cell-based, human cytomegalovirus. To be noted: Human betaherpesvirus 5, AD169, read-out: Measured EC50 ref. drugs UL97-M460I. Here is the method: as §3, §4, §5
Series [14] concerns HCMV UL97-T409M. The series is described as above. The class given is cell-based, human cytomegalovirus. To be noted: Human betaherpesvirus 5, read-out: Measured EC50 ref. drugs UL97-T409M. Here is the method: as §3, §4, §5
In series [15] the test system is HCMV UL97-C480F. The series is described as above. The class given is cell-based, human cytomegalovirus. The conditions noted are these: Human betaherpesvirus 5, read-out: Measured EC50 ref. drugs UL97-C480F. Here is the method: as §3, §4, §5
Series [16] relates to HCMV UL97-H520Q. Described as above. The format is cell-based, human cytomegalovirus. To be noted: Human betaherpesvirus 5, read-out: Measured EC50 ref. drugs UL97-H520Q. Here is the method: as §3, §4, §5
For another series, the system named is HCMV UL97-H469V. The series is described as above. To be noted: Human betaherpesvirus 5, read-out: Measured EC50 ref. drugs UL97-H469V. The class given is cell-based, human cytomegalovirus. Here is the method:
as §3, §4, §5

The subject of series [17] is HCMV UL97-H411Y. The description is as above. The format is cell-based, human cytomegalovirus. To be noted: Human betaherpesvirus 5, read-out: Measured EC50 ref. drugs UL97-H411Y. Here is the method: as §3, §4, §5
The subject of series [18] is HCMV UL97-C603W. Set-up: method as in PMID 31940472; key: R-high, high-level drug resistance; R-int, intermediate-level drug resistance; R-low, low-level drug resistance; S, drug sensitivity. To be noted: cited from earlier work.

With `Nc1nc2c(ncn2COCCO)c(=O)[nH]1` [aciclovir], the CC50 in [1] is greater than 100000 nM.

For the molecule `CCCCCCCCCCCCCCCCOCCCOP(=O)(O)CO[C@H](CO)Cn1ccc(N)nc1=O` [brincidofovir], the CC50 in [1] is greater than 10000 nM; in series [2] (marked 0.05 μg/mL dox) it was 23800 ± 2900 nM; in series [2] (marked 0.5 μg/mL dox), 28200 nM. Besides, the “SI (VZV-GFP system)” value in the series with VZV Oka-GFP (96 well format) is given as greater than 143. In addition, the EC50 with VZV Oka-GFP (read-out: VZV EC50 (first experimental replicate)) is 70 ± 40 nM; in the series with VZV Oka-GFP (read-out: VZV EC50 (second experimental replicate)) it was 60 ± 30 nM; with rKSHV.219-GFP/RFP (Human gammaherpesvirus 8, read-out: KSHV EC50, iSLK.219, 96 well, induced with 0.5 μg/mL dox) it was 700 nM. Moreover, the “SI (KSHV-GFP/RFP system)” value is recorded as 126 in the series on rKSHV.219-GFP/RFP (0.05 μg/mL dox) and 43 with rKSHV.219-GFP/RFP (0.5 μg/mL dox).

Regarding `CC(C)Nc1nc2cc(Cl)c(Cl)cc2n1[C@H]1O[C@@H](CO)[C@H](O)[C@@H]1O` [MBV, maribavir], the “Reported phenotype UL97-H411Y” value with HCMV UL97-H411Y [3] is “R-high”. Besides, the “Reported phenotype UL97-C480F” value in the series with HCMV UL97-C480F [4] was “R-high”. In the series with HCMV UL97-T409M [5], the “Reported phenotype UL97-T409M” value is recorded as “R-high”. For the same molecule, in the series with HCMV UL97-C592G [6], the “Reported phenotype UL97-C592G” value is “S”. Besides, the “Reported phenotype UL97-H520Q” value with HCMV UL97-H520Q [7] is “S”. The “Reported phenotype UL97-M460I” value in the series with HCMV UL97-M460I [8] is “R-low”. The “Reported phenotype UL97-F342S” value with HCMV UL97-F342S [9] is “R-int”. In addition, the EC50 is 770 nM with HCMV UL97-C592G [10]; 20300 nM in the series on HCMV UL97-F342S [11]; 1530 nM with HCMV UL97-C603W [12]; 63900 nM with HCMV UL97-L397R; 10 nM in the series with HCMV UL97-M460I [13]; greater than 30000 nM in the series on HCMV UL97-T409M [14]. In addition, the EC50 in the series on HCMV UL97-C480F [15] is greater than 30000 nM; in the series with HCMV UL97-H520Q [16] it was 40 nM; with HCMV UL97-H469V it was 620 nM; with HCMV UL97-H411Y [17], 21000 nM. In the series with HCMV UL97-C603W [18], the “Reported phenotype UL97-C603W” value is “R-int”.

Values taken from publication PMC10892818, “An Antiherpesviral Host-Directed Strategy Based on CDK7 Covalently Binding Drugs: Target-Selective, Picomolar-Dose, Cross-Virus Reactivity” (Pharmaceutics, 2024).
